1 substance from PMC4063695, “Design of Embedded-Hybrid Antimicrobial Peptides with Enhanced Cell Selectivity and Anti-Biofilm Activity” (PLoS ONE, 2014) can be followed below.

No end group written: not given here.

Data set [1] in a line: Circular dichroism, secondary structure. Format: physicochemical. As to conditions: 150 µM peptide, 25°C, from [θ]222. The procedure: The CD spectra were measured with a CD spectropolarimeter (Jasco, J-820, Tokyo, Japan) at 25°C, using a 0.1 cm path length rectangular quartz cell. The spectra were recorded at between 190 and 250 nm at 10 nm/min scanning speed. At least three scans were conducted for each peptide sample.
The acquired CD spectra were converted to the mean residue ellipticity through the following equation: [drawing 1]
where θM is the mean residue ellipticity [deg.cm2.dmol-1], θobs is the observed ellipticity corrected for the buffer at a given wavelength [mdeg], c is the peptide concentration [mM], l is the path length [mm], and n is the number of amino acids.
The percentage of α-helical structure was calculated as followings: [drawing 2]
where [θ]222 is the experimentally observed mean residue ellipticity at 222 nm, and values for [θ]^0 and [θ]^100 which correspond to 0 and 100% a-helix content at 222 nm, are estimated to be −2000 and −32000, respectively, [29].

For data set [2], the system named is E. coli UB1005. Particulars: E. coli UB1005; MHB, 37°C, 18-24 h; at least three times in duplicate. The source says: (§1) E. coli ATCC25922, P. aeruginosa ATCC27853, S. aureus ATCC29213, S. epidermidis ATCC12228, S. faecalis ATCC29212 and B. subtilis CMCC63501 were obtained from the College of Veterinary Medicine, Northeast Agricultural University (Harbin, China), E. coli K88, E. coli CVCC1515 and P. aeruginosa ATCC15442 were bestowed by Prof. J.H. Wang (Gene Engineering Laboratory, Feed Research Institute, Chinese Academy of Agricultural Sciences Beijing, China) and E. coli UB1005 was kindly provided by Prof. Q.S. Qi (State Key Laboratory of Microbial Technology, Shandong University, China). […] Briefly, 50 µl of approximate 0.5–1 × 10^6 colony forming units (CFU)/ml of cells were diluted in Mueller-Hinton broth and distributed to 96-well plate, 50 µl of twofold peptides were added and the plates was incubated at 37°C for 18–24 h. The MIC values were calculated as the lowest peptide concentration that prevented visible turbidity and negative control of the pure broth without microbes. The tests were performed at least three times in duplicate.

Data set [3] relates to B. subtilis CMCC63501. As to conditions: B. subtilis CMCC63501; MHB, 37°C, 18-24 h; at least three times in duplicate.
Description: as §1

In data set [4] the test system is E. coli K88. As to conditions: MHB, 37°C, 18-24 h, at least three times in duplicate.
Description: as §1

In data set [5] the test system is P. aeruginosa ATCC27853. Particulars: P. aeruginosa ATCC27853; MHB, 37°C, 18-24 h; at least three times in duplicate.
Description: as §1

Data set [6] relates to S.epidermidis ATCC12228. Particulars: S.epidermidis ATCC12228; MHB, 37°C, 18-24 h; at least three times in duplicate.
Description: as §1

In data set [7] the test system is S.aureus ATCC29213. As to conditions: S.aureus ATCC29213; MHB, 37°C, 18-24 h; at least three times in duplicate.
Description: as §1

Data set [8] concerns P. aeruginosa variant 2. Particulars: P. aeruginosa variant 2, obtained by step-wise culture with gentamicin; MHB, 37°C, 18-24 h.
Description: as §1

In data set [9] the test system is P. aeruginosa variant 1. Particulars: P. aeruginosa variant 1, obtained by step-wise culture with ciprofloxacin hydrochloride; MHB, 37°C, 18-24 h.
Description: as §1

In data set [10] the test system is S. typhimurium ATCC14028. As to conditions: S. typhimurium ATCC14028; MHB, 37°C, 18-24 h; at least three times in duplicate.
Description: as §1

Data set [11] relates to E. coli ATCC25922. As to conditions: E. coli ATCC25922; MHB, 37°C, 18-24 h; at least three times in duplicate.
Description: as §1

Data set [12] relates to S.faecalis ATCC29212. Particulars: S.faecalis ATCC29212; MHB, 37°C, 18-24 h; at least three times in duplicate.
Description: as §1

In data set [13] the test system is P. aeruginosa ATCC15442. Particulars: P. aeruginosa ATCC15442; MHB, 37°C, 18-24 h; at least three times in duplicate.
Description: as §1

Data set [14] has as its system E. coli CVCC1515. Particulars: E. coli CVCC1515; MHB, 37°C, 18-24 h; at least three times in duplicate.
Description: as §1

The subject of data set [15] is S. pullorum C79-13. Particulars: S. pullorum C79-13; MHB, 37°C, 18-24 h; at least three times in duplicate.
Description: as §1

Data set [16] has as its system E. coli ATCC25922. In words: Kinetics of bacterial killing. Format: cell-based, Escherichia coli. Particulars: 1× MIC, within 30 min, 37°C, PBS; mean of three repeats. On the procedure:
Kinetics of the bacterial killing was measured by using E. coli ATCC25922 in logarithmic phase (10^8 CFU/mL). The above bacteria were diluted to 1/1000 with PBS, and 500 µL solutions was added with 500 µL PBS at different final concentrations (1/4, 1/2 and 1 × MIC). The solutions were incubated for 0.5 min, 1 min, 2.5 min, 5 min, 10 min, 20 min, and 40 min at 37°C. The moderately diluted samples were plated on nutrient agar plate (MHA). The bacterial colonies were counted after incubation for 18 h at 37°C. The results were determined and presented as the mean of three repeats.

On to RFRRLFRIRVRVLKKI-NH2 [R-FV-I16], for which the results for the α-helical content in data set [1] (30 mM SDS) and in data set [1] (50% TFE) were 36% and 69%, respectively. For the same substance, the MIC was 4 µM in data set [2]; 1 µM in data set [3]; 2 µM in [4]; 4 µM in data set [5]; 4 µM in data set [6]; 2 µM in data set [7]. The MIC in data set [8] was found to be 4 µM; in data set [9], 2 µM; in data set [10] it was 2 µM; in [11], 1 µM; in data set [12], 1 µM; in data set [13], 2 µM. Moreover, the results for the MIC in [14] and in data set [15] were 2 µM and 1 µM, respectively. Moreover, the “reduction of colony count” value in data set [16] came out at 99%.
